These results are taken from patent US11352352B2, “Aminopyrimidine compound, preparation method therefor and use thereof” (BEIJING ADAMADLE BIOTECHNOLOGY LIMITED LIABILITY COMPANY, priority 2017, dated 2022).

What all share (experiment): Cell proliferation inhibition experiment, CellTiter-Glo (CTG) method
Holding throughout (assay type): cell-based

The subject of one assay is A-431. The conditions noted are these: Homo sapiens, A-431, 72 h, A-431 cells, 3 days. The procedure, abridged: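 IC50 values come from sigmoidal dose-response fits of percent survival, measured by CellTiter-Glo luminescence after 3 days' culture with compound. Nine-point, threefold series in triplicate, starting at 30 μM for A-431 and at 1.111 μM for NCI-H1975 and PC-9.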

The test system of another assay is NCI-H1975. The settings on record: for pIC50: Homo sapiens, NCI-H1975, 72 h, NCI-H1975 cells, CTG, 3 days; for A-431/NCI-H1975 Selectivity: ratio of A-431 IC50 to NCI-H1975 IC50. The procedure, abridged:
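NCI-H1975 cells with viability above 90% by trypan blue were seeded at 90 μL per well in black 96-well plates and incubated overnight at 37° C., 5% CO2. Compounds were added at nine concentrations in triplicate, and viability was measured with CellTiter-Glo luminescence on EnVision. IC50 came from non-linear S-curve fitting in GraphPad Prism 5.0.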

A further assay has as its system PC-9. The conditions noted are these: Homo sapiens, PC-9, 72 h, PC-9 cells, 3 days. The procedure, abridged: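 Cells in log-phase growth (viability above 90% by trypan blue) were seeded at 90 μL per well in black-walled, clear-bottom 96-well plates and incubated overnight at 37° C., 5% CO2. A T0 plate was read the next day. Test compounds were added at nine concentrations in triplicate with a solvent control. Viability was measured by CellTiter-Glo luminescence on EnVision, and IC50 came from non-linear S-curve fitting in GraphPad Prism 5.0.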

pIC50: −log10 of the molar value.

As to `C=CC(=O)Nc1cc(Nc2cc(-c3ccc4c(cnn4C)c3)ncn2)c(OC)cc1N(C)CCO` [compound 269], the values for the pIC50 in the assay on A-431, with NCI-H1975 and in the assay on PC-9 were 5.80, 7.67 and 7.79, respectively. In the assay with NCI-H1975, the “A-431/NCI-H1975 Selectivity” value worked out at 72.9.
Take `C=CC(=O)Nc1cc(Nc2cc(-c3ccc4c(cnn4C)c3)ncn2)c(OC)cc1N1CCC(CCO)CC1` [compound 270]: the pIC50 in the assay on A-431 is 5.62; in the assay on NCI-H1975, 7.35; with PC-9 it was 7.26. Also, in the assay on NCI-H1975, the “A-431/NCI-H1975 Selectivity” value was 54.1.
For the molecule `C=CC(=O)Nc1cc(Nc2cc(-c3ccc4c(cnn4C)c3)ncn2)c(OCC)cc1N(C)CCNC(C)C` [compound 271], the results for the pIC50 with A-431, in the assay on NCI-H1975 and in the assay with PC-9 were 5.62, 7.60 and 7.11, respectively. In the assay with NCI-H1975, the “A-431/NCI-H1975 Selectivity” value is reported as 94.9.
The matching figures for `C=CC(=O)Nc1cc(Nc2cc(-c3ccc4c(cnn4C)c3)ncn2)c(OC(F)F)cc1N(C)CCNC(C)C` [compound 272]: 6.01, 8.25, 7.86 and 176.3.
The matching figures for `C=CC(=O)Nc1cc(Nc2cc(-c3ccc4c(cnn4C)c3)ncn2)c(OC(F)F)cc1N1CCN(CCO)CC1` [compound 273]: 5.57, 7.27, 7.10 and 50.2.
For `C=CC(=O)Nc1cc(Nc2cc(-c3ccc4cnn(C)c4c3)ncn2)c(OC)cc1N1CCN(CCO)CC1` [compound 274], the pIC50 in the assay on A-431 is 5.69; in the assay on NCI-H1975, 7.33; in the assay on PC-9 it was 7.25. Besides, the “A-431/NCI-H1975 Selectivity” value in the assay on NCI-H1975 is on record as 43.4.
The matching figures for `C=CC(=O)Nc1cc(Nc2cc(-c3ccc4cnn(C)c4c3)ncn2)c(OC(F)F)cc1N1CCN(CCO)CC1` [compound 275]: 5.48, 6.87, 7.36 and 24.3.
Turning to `C=CC(=O)Nc1cc(Nc2cc(-c3ccc4cnn(C)c4c3)ncn2)c(OC)cc1N1C[C@@H](C)N[C@@H](C)C1` [compound 276], the pIC50 is 5.68 in the assay on A-431, 7.49 in the assay on NCI-H1975 and 7.89 in the assay on PC-9. Moreover, in the assay with NCI-H1975, the “A-431/NCI-H1975 Selectivity” value is given as 65.1.
The matching figures for `C=CC(=O)Nc1cc(Nc2cc(-c3ccc4cnn(C)c4c3)ncn2)c(OC(F)F)cc1N1C[C@@H](C)N[C@@H](C)C1` [compound 277]: 5.70, 7.28, 7.66 and 37.9.
The corresponding values for `C=CC(=O)Nc1cc(Nc2nccc(-c3ccc4c(cnn4C)c3)n2)c(OC)cc1N1CCN(CCO)CC1` [compound 278] are 5.61, 6.93, 7.39 and 21.2.
The matching figures for `C=CC(=O)Nc1cc(Nc2nccc(-c3ccc4c(cnn4C)c3)n2)c(OC)cc1N(C)CCO` [compound 279]: 5.54, 7.59, 7.67 and 112.8.
`C=CC(=O)Nc1cc(Nc2nccc(-c3ccc4c(cnn4C)c3)n2)c(OC)cc1N1C[C@@H](C)N[C@@H](C)C1` [compound 280]: the pIC50 in the assay on A-431 is 5.49; in the assay with NCI-H1975 it was 7.00; in the assay on PC-9, 7.06. Further, the “A-431/NCI-H1975 Selectivity” value in the assay with NCI-H1975 is reported as 32.4.
The matching figures for `C=CC(=O)Nc1cc(Nc2nccc(-c3ccc4c(cnn4C)c3)n2)c(OC)cc1N(C)CCNC(C)C` [compound 281]: 5.48, 7.14, 7.17 and 46.2.
The corresponding values for `C=CC(=O)Nc1cc(Nc2cc(-c3ccc4c(cnn4C)c3)ncn2)c(CC)cc1N1CCN(C)CC1` [compound 282] are 5.86, 7.64, 7.49 and 60.4.
The matching figures for `C=CC(=O)Nc1cc(Nc2cc(-c3ccc4c(cnn4C)c3)ncn2)c(CC)cc1N1CCC(N2CCOCC2)CC1` [compound 283]: 5.82, 7.43, 7.33 and 40.8.
For the molecule `C=CC(=O)Nc1cc(Nc2cc(-c3ccc4c(cnn4C)c3)ncn2)c(OC)cc1N1CCC(N(C)C)C1` (stereo not drawn) [compound 284], the negative-log IC50 (pIC50) is 6.17 with A-431, 7.58 in the assay on NCI-H1975 and 7.87 in the assay on PC-9. Also, in the assay with NCI-H1975, the “A-431/NCI-H1975 Selectivity” value was 25.5.
The matching figures for `C=CC(=O)Nc1cc(Nc2cc(-c3ccc4nc(C)sc4c3)ncn2)c(OC)cc1OCCN(C)C` [compound 285]: 6.20, 7.39, 7.64 and 15.6.
The matching figures for `C=CC(=O)Nc1cc(Nc2cc(-c3ccc4c(cnn4C)c3)ncn2)c(OC)cc1C(=O)N(C)CCN(C)C` [compound 286]: 6.09, 7.40, 7.51 and 20.0.
For the molecule `C=CC(=O)Nc1cc(Nc2cc(-c3ccc4c(cnn4C)c3)ncn2)c(OC(F)F)cc1N(C)CCN(C)C` [compound 287], the pIC50 in the assay on A-431 was 6.21; in the assay with NCI-H1975, 8.40; in the assay on PC-9, 8.04. Also, the “A-431/NCI-H1975 Selectivity” value in the assay with NCI-H1975 is given as 152.9.
Consider `C=CC(=O)Nc1cc(Nc2cc(-c3ccc4c(cnn4C)c3)ncn2)c(OC)cc1N(C)C(=O)CN(C)C` [compound 288], for which the pIC50 in the assay on A-431 was 5.72; in the assay on NCI-H1975 it was 7.01; in the assay on PC-9 it was 7.12. Also, in the assay with NCI-H1975, the “A-431/NCI-H1975 Selectivity” value was 19.6.
The matching figures for `C=CC(=O)Nc1cc(Nc2cc(-c3ccc4c(cnn4C)c3)ncn2)c(OCC)cc1N(C)CCN(C)C` [compound 289]: 5.98, 7.91, 7.62 and 85.1.
For the molecule `C=CC(=O)Nc1cc(Nc2nccc(-c3ccc4c(cnn4C)c3)n2)c(OC)cc1C(=O)N(C)CCN(C)C` [compound 290], the pIC50 in the assay on A-431 is 5.79; in the assay with NCI-H1975, 7.51; in the assay on PC-9, 7.44. Moreover, the “A-431/NCI-H1975 Selectivity” value in the assay with NCI-H1975 came to 52.9.
The corresponding values for `C=CC(=O)Nc1cc(Nc2cc(-c3ccc4c(cnn4C)c3)ncn2)c(OC2CC2)cc1N(C)CCN(C)C` [compound 291] are 5.56, 7.05, 7.27 and 30.6.
The matching figures for `C=CC(=O)Nc1cc(Nc2nccc(-c3ccc4c(cnn4C)c3)n2)c(OC2CC2)cc1N(C)CCN(C)C` [compound 292]: 5.53, 7.04, 7.19 and 32.9.
For the molecule `C=CC(=O)Nc1cc(Nc2cc(-c3ccc4c(cnn4C)c3)ncn2)c(OC)cc1N(C)C1CCN(C(C)=O)CC1` [compound 293], the figures for the negative-log IC50 (pIC50) with A-431, in the assay on NCI-H1975 and in the assay with PC-9 were 5.56, 7.10 and 7.27, respectively. In the assay on NCI-H1975, the “A-431/NCI-H1975 Selectivity” value was found to be 34.3.
The corresponding values for `C=CC(=O)Nc1cc(Nc2cc(-c3ccc4c(cnn4C)c3)ncn2)c(OC)cc1CN1CCN(C)CC1` [compound 294] are 5.34, 7.15, 7.35 and 64.2.
The corresponding values for `C=CC(=O)Nc1cccc(Nc2nc(Nc3ccc4c(cnn4C)c3)ncc2F)c1` [known compound 296, reference compound] are 5.84, 7.04, 6.92 and 15.9.

One may read the pIC50 as the IC50 on a negative log10 scale, so that one unit is a factor of ten. Read a low pIC50 as a large IC50.
